From EPA's ToxValDB 9.5

Assays:
Oryctolagus sp. = conditions: reproduction developmental; duration: 13 days; oral; F; New Zealand
Rattus norvegicus = conditions: oral
Mus musculus [1] = system: Mus musculus
Mus musculus [2] = conditions: uterotrophic; duration: 3 days; oral; Active
[3] = developmental, duration: 5 days, oral, F, Developmental: Delay in vaginal opening at 5 mg/kg and mammary gland growth stimulation a 5 mg/kg and inhibition at 10 mg/kg
[4] = developmental, duration: 7 days, oral, F, Kunming, Developmental: Increased resorbed embryos at 10 mg/kg/day in GD 13 group
[5] = developmental, duration: 17 days, oral, F, C57BL/6, Developmental: Developmental delays in the mammary glands on PNDs 21 (38%) and 61 (25%)
[6] = developmental, duration: 17 days, oral, F, CD1, Developmental: Increased ambulatory activity and decreased methamphetamineinduced activity
[7] = developmental, duration: 17 days, oral, F, Developmental: Decrease in number of successful births
[8] = developmental, duration: 17 days, oral, F, Hepatic: Centrilobular hepatocyte hypertrophy and bile duct hyperplasia at 3 mg/kg/day
[9] = reproduction developmental, duration: 17 days, oral, F, CD1, Hepatic: Increase in severity of chronic inflammation at ?1 mg/kg/day / Ito cell hypertrophy and centrilobular hepatocellular hypertrophy …
[10] = short-term, duration: 4 days, dermal, F, BALB/c, Hepatic: 52% increase in absolute liver weight
[11] = short-term, duration: 4 days, dermal, F, BALB/c, Immunotoxicological: Increased serum IgE following ovalbumin challenge
[12] = short-term, duration: 5 days, oral, F, BALB/c, Body Weight: 13% decrease in body weight gain
[13] = short-term, duration: 5 days, oral, F, Body Weight: 10% decrease in body weight gain
[14] = short-term, duration: 10 days, oral, F, Immunotoxicological: Altered response to sRBC

Work on `O=C(O)C(F)(F)C(F)(F)C(F)(F)C(F)(F)C(F)(F)C(F)(F)C(F)(F)F` [Perfluorooctanoic acid] yielded an NOAEL (Oryctolagus sp.) of 50 mg/kg-day, an NOAEL (Rattus norvegicus; acute, duration: 1 days, M, Wistar, Neurological: No alteration in performance on novel object recognition test) of 50 mg/kg-day and an LOAEL (Rattus norvegicus; developmental, duration: 21 days, F, Wistar, Developmental: 17-18% reduced motor coordination and increased locomotor activity in pups on PNDs 34-35) of 1.6 mg/kg-day. For the same molecule, the NOAEL (Rattus norvegicus; short-term, duration: 1 weeks, M, Wistar) was 38 mg/kg-day, the NOAEL (Rattus norvegicus; short-term, duration: 1 weeks, M, Wistar, Hepatic: Significant increase in absolute and relative liver weight at ?4.7 mg/kg/day) was 9.5 mg/kg-day and the NOAEL (Rattus norvegicus; short-term, duration: 14 days, M, Sprague-Dawley, Hepatic: 45% increase in relative liver weight) was 20 mg/kg-day. It also gave an LOAEL (Rattus norvegicus; short-term, duration: 28 days, M, Sprague-Dawley, Neurological: Cachexia and lethargy) of 5 mg/kg-day, an LOAEL (Mus musculus [1]; developmental, duration: 5 days, oral, F, BALB/c, Developmental: Delay in vaginal opening at 1 mg/kg and mammary gland growth inhibition at 5 and 10 mg/kg) of 1 mg/kg-day and an LOAEL (Mus musculus [1]; [3]) of 5 mg/kg-day. For the same molecule, the NOAEL (Mus musculus [1]; [3]) was 1 mg/kg-day, the LOAEL (Mus musculus [1]; developmental, duration: 5 days, oral, F, Developmental: Mammary gland growth stimulation) was 5 mg/kg-day and the LOAEL (Mus musculus [1]; [4]) was 10 mg/kg-day. For the same molecule, the NOAEL (Mus musculus [1]; [4]) was 5 mg/kg-day, the LOAEL (Mus musculus [1]; developmental, duration: 15 days, oral, F, C57BL/6, Developmental: Increased horizontal and ambulatory locomotor activity and decreased resting time in males / decrease in novel object …) was 0.1 mg/kg-day and the LOAEL (Mus musculus [1]; [5]) was 0.3 mg/kg-day. The NOAEL (Mus musculus [1]; [5]) was 0.1 mg/kg-day, the LOAEL (Mus musculus [1]; developmental, duration: 17 days, oral, F, CD1, Developmental: Developmental delays in mammary gland development) was 0.01 mg/kg-day and the LOAEL (Mus musculus [1]; developmental, duration: 17 days, oral, F, CD1, Developmental: Developmental delays in the mammary glands on PNDs 35 (26%) and 56 (30%)) was 0.01 mg/kg-day. It also gave an LOAEL (Mus musculus [1]; developmental, duration: 17 days, oral, F, CD1, Developmental: Impaired development of mammary glands in offspring) of 0.3 mg/kg-day, an LOAEL (Mus musculus [1]; [6]) of 1 mg/kg-day and an NOAEL (Mus musculus [1]; [6]) of 0.3 mg/kg-day. The LOAEL (Mus musculus [1]; developmental, duration: 17 days, oral, F, Developmental: 31.5% reduced pups per litter on PND 20) was 3 mg/kg-day, the LOAEL (Mus musculus [1]; [7]) was 3 mg/kg-day and the NOAEL (Mus musculus [1]; [7]) was 0.1 mg/kg-day. The NOAEL (Mus musculus [1]; developmental, duration: 17 days, oral, F, Hepatic: 28% increased liver weight, hepatocellular hypertrophy with increased peroxisomes) was 3 mg/kg-day, the LOAEL (Mus musculus [1]; [8]) was 3 mg/kg-day and the NOAEL (Mus musculus [1]; [8]) was 1 mg/kg-day. It also gave an LOAEL (Mus musculus [1]; developmental, duration: 18 days, oral, F, ICR, Developmental: 14% increased neonatal mortality, 9.5% reduced fetal body weight) of 5 mg/kg-day, an NOAEL (Mus musculus [1]; developmental, duration: 18 days, oral, F, ICR, Developmental: 14% increased neonatal mortality, 9.5% reduced fetal body weight + Hepatic: 35% increased maternal relative liver weight with…) of 1 mg/kg-day and an LOAEL (Mus musculus [1]; developmental, duration: 20 days, oral, diet, M/F, C57BL/6, developmental) of 8.29 mg/L. It also gave an LOAEL (Mus musculus [1]; developmental, duration: 21 days, oral, F, C57BL/6, Developmental: Altered femur and tibial bone morphology, decreased tibial mineral density) of 0.3 mg/kg-day, an LOAEL (Mus musculus [1]; developmental, duration: 21 days, oral, M/F, Developmental: Altered exploratory behavior in adult offspring (increased in males and decreased in females) / increased global activity in…) of 0.3 mg/kg-day and an LOAEL (Mus musculus [1]; reproduction developmental, duration: 7 days, oral, F, Kunming, Reproductive: Decreases in progesterone levels at ?5 mg/kg in GD 13 group / increased serum estradiol level at 10 mg/kg/day on GD 7 / …) of 2.5 mg/kg-day. The LOAEL (Mus musculus [1]; [9]) was 1 mg/kg-day, the NOAEL (Mus musculus [1]; [9]) was 0.3 mg/kg-day and the NOAEL (Mus musculus [1]; reproduction developmental, duration: 17 days, oral, F, Hepatic: Increased severity of centrilobular hepatocyte hypertrophy at ?0.3 mg/kg/day) was 1 mg/kg-day. The LOAEL (Mus musculus [1]; reproduction developmental, duration: 17 days, oral, M/F, CD1, Hepatic: Increased severity of hepatocellular hypertrophy at PND 91 and periportal inflammation on PND 21 at ?0.01 mg/kg/day (incidence was …) was 0.01 mg/kg-day, the LOAEL (Mus musculus [1]; reproduction developmental, duration: 18 days, oral, F, ICR, Hepatic: 35% increased maternal relative liver weight with hepatocellular hypertrophy at ?1 mg/kg/day / single cell necrosis and mild …) was 10 mg/kg-day and the LOAEL (Mus musculus [1]; short-term, duration: 3 weeks, oral, M, Hepatic: Hepatocellular hypertrophy and degeneration) was 5 mg/kg-day. It also gave an NOAEL (Mus musculus [1]; short-term, duration: 4 days, dermal, F, BALB/c) of 50 mg/kg-day, an LOAEL (Mus musculus [1]; [10]) of 6.25 mg/kg-day and an NOAEL (Mus musculus [1]; [10]) of 2.5 mg/kg-day. The LOAEL (Mus musculus [1]; [11]) was 18.8 mg/kg-day, the NOAEL (Mus musculus [1]; [11]) was 12.5 mg/kg-day and the LOAEL (Mus musculus [1]; [12]) was 10 mg/kg-day. The NOAEL (Mus musculus [1]; [12]) was 5 mg/kg-day, the NOAEL (Mus musculus [1]; short-term, duration: 5 days, oral, F, BALB/c, Hepatic: Increases in liver weight and hepatocellular hypertrophy at ?1 mg/kg) was 10 mg/kg-day and the LOAEL (Mus musculus [1]; [13]) was 10 mg/kg-day. It also gave an NOAEL (Mus musculus [1]; [13]) of 5 mg/kg-day, an LOAEL (Mus musculus [1]; short-term, duration: 5 days, oral, F, C57BL/6, Reproductive: Increased progesterone levels) of 5 mg/kg-day and an NOAEL (Mus musculus [1]; short-term, duration: 5 days, oral, F, Hepatic: Increases in liver weight and hepatocellular hypertrophy at ?1 mg/kg) of 10 mg/kg-day. It also gave an LOAEL (Mus musculus [1]; short-term, duration: 7 days, oral, F, BALB/c, Body Weight: 36% decrease in body weight gain + Immunotoxicological: Inhibition of T-and B-lymphocyte proliferation in response to sRBC / …) of 20 mg/kg-day, an NOAEL (Mus musculus [1]; short-term, duration: 7 days, oral, F, BALB/c, Hepatic: 32% increase in relative liver weight) of 20 mg/kg-day and an LOAEL (Mus musculus [1]; short-term, duration: 7 days, oral, M, Body Weight: 14% decreased mean body weight + Immunotoxicological: 40% reduction in spleen weight and 79% reduction in thymus weight) of 33 mg/kg-day. The LOAEL (Mus musculus [1]; short-term, duration: 7 days, oral, M, Body Weight: >10% reduced final body weight) was 24 mg/kg-day, the NOAEL (Mus musculus [1]; short-term, duration: 7 days, oral, M, Hepatic: 2-fold increase in absolute liver weight) was 24 mg/kg-day and the NOAEL (Mus musculus [1]; short-term, duration: 7 days, oral, M, Hepatic: 86% increase in absolute liver weight) was 33 mg/kg-day. For the same molecule, the NOAEL (Mus musculus [1]; short-term, duration: 7 days, oral, M, Hepatic: Hepatocellular hypertrophy, steatosis, and increased hepatic triglyceride levels) was 10 mg/kg-day, the LOAEL (Mus musculus [1]; short-term, duration: 7 days, oral, M, Immunotoxicological: Decreased humoral response to immunization with horse red blood cells) was 24 mg/kg-day and the LOAEL (Mus musculus [1]; [14]) was 15 mg/kg-day. The NOAEL (Mus musculus [1]; [14]) was 7.5 mg/kg-day, the LOAEL (Mus musculus [1]; short-term, duration: 10 days, oral, M, Body Weight: 17% decrease in final body weight) was 30 mg/kg-day and the LOAEL (Mus musculus [1]; short-term, duration: 10 days, oral, M, Body Weight: 25% body weight loss after 5 days of treatment) was 78 mg/kg-day. The LOAEL (Mus musculus [1]; short-term, duration: 10 days, oral, M, Body Weight: 25% body weight loss after 10 days of treatment) was 78 mg/kg-day, the NOAEL (Mus musculus [1]; short-term, duration: 10 days, oral, M, C57BL/6, Hepatic: 68% increase in liver weight, hepatocellular hypertrophy, and decreased serum cholesterol levels) was 2 mg/kg-day and the NOAEL (Mus musculus [1]; short-term, duration: 10 days, oral, M, Hepatic: 35% increase in absolute liver weight at ?1 mg/kg/day) was 1 mg/kg-day. For the same molecule, the NOAEL (Mus musculus [1]; short-term, duration: 10 days, oral, M, Hepatic: 74% increase in absolute liver weight at ?78 mg/kg/day) was 390 mg/kg-day, the NOAEL (Mus musculus [1]; short-term, duration: 10 days, oral, M, Hepatic: 74% increase in absolute liver weight in 5 days at ?78 mg/kg/day) was 390 mg/kg-day and the NOAEL (Mus musculus [1]; short-term, duration: 10 days, oral, M, Hepatic: >90% increase in absolute and relative liver weight) was 30 mg/kg-day. The LOAEL (Mus musculus [1]; short-term, duration: 10 days, oral, M, Immunotoxicological: 40-50% decrease in spleen and thymus weights) was 11.5 mg/kg-day, the LOAEL (Mus musculus [1]; short-term, duration: 10 days, oral, M, Immunotoxicological: 86% reduction in absolute thymus weight / 30% reduction in absolute spleen weight) was 30 mg/kg-day and the NOAEL (Mus musculus [1]; short-term, duration: 15 days, oral, F) was 7.5 mg/kg-day. It also gave an LOAEL (Mus musculus [1]; short-term, duration: 15 days, oral, F, Body Weight: 14-20% decrease in body weight in wild-type mice) of 30 mg/kg-day, an LOAEL (Mus musculus [1]; short-term, duration: 21 days, oral, M, ICR, Immunotoxicological: Marked hyperplasia in spleen white pulp and thymic atrophy) of 47.2 mg/kg-day and an NOAEL (Mus musculus [1]; subchronic, duration: 6 weeks, oral, M/F, BALB/c, Hepatic: 54-65% increase in relative liver weight / 20% increase in plasma cholesterol in males) of 0.55 mg/kg-day. For the same molecule, the NOAEL (Mus musculus [1]; subchronic, duration: 6 weeks, oral, M/F, C57BL/6, Hepatic: 66-67% increase in relative liver weight in males / increased plasma cholesterol levels in males (35%) and females (70%)) was 0.55 mg/kg-day and the LEL (Mus musculus [2]) was 0.01 mg/kg-day.
